Measurements as given in BindingDB's records for patent US9556181 (Bayer Pharma Aktiengesellschaft, 2017).

Biological target: T1, MAP kinase-interacting serine/threonine-protein kinase 1 [T344D] (Homo sapiens, UniProt Q9BUB5, T344D)
T1 construct: gene MKNK1
Assay: MKNK1 Kinase High ATP Assay
Conditions: pH 7.5
From the text: TBDA recombinant fusion protein of Glutathione-S-Transferase (GST, N-terminally) and human full-length MKNK1 (amino acids 1-424 and T344D of accession number BAA 19885.1), expressed in insect cells using baculovirus expression system and purified via glutathione sepharose affinity chromatography, was purchased from Carna Biosciences (product no 02-145) and used as enzyme. As substrate for the kinase reaction the biotinylated peptide biotin-Ahx-IKKRKLTRRKSLKG (C-terminus in amide form) was used, which can be purchased e.g. from the company Biosyntan (Berlin-Buch, Germany).For the assay 50 nL of a 100 fold concentrated solution of the test compound in DMSO was pipetted into a black low volume 384 well microtiter plate (Greiner Bio-One, Frickenhausen, Germany), 2 μL of a solution of MKNK1 in aqueous assay buffer [50 mM HEPES pH 7.5, 5 mM MgCl2, 1.0 mM dithiothreitol, 0.005% (v/v) Nonidet-P40 (Sigma)] was added and the mixture was incubated for 15 min at 22° C. to allow pre-binding of the test compounds to the enzyme before the start of the kinase reaction. Then the kinase reaction was started by the addition of 3 μL of a solution of adenosine-tri-phosphate (ATP, 3.3 mM=>final conc. in the 5 μL assay volume is 2 mM) and substrate (0.1 μM=>final conc. in the 5 μL assay volume is 0.06 μM) in assay buffer and the resulting mixture was incubated for a reaction time of 30 min at 22° C. […]

T1 sequence (Q9BUB5 whole entry, looked up, stated change not applied): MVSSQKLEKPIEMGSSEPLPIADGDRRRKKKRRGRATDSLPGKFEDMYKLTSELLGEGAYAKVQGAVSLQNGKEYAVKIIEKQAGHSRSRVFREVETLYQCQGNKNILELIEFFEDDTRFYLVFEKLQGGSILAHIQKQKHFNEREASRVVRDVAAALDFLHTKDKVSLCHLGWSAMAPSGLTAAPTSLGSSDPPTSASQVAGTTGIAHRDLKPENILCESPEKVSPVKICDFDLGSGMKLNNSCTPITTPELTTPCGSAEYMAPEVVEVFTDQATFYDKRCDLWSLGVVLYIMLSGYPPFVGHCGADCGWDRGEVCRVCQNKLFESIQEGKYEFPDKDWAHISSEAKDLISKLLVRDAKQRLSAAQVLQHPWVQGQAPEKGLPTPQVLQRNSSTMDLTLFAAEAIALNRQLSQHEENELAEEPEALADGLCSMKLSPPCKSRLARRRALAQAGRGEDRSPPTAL

Compound `COc1cc2[nH]ncc2cc1Nc1ncnc2[nH]ncc12` [US9556181, 2] has an IC50 of 49 nM.
